In the NIST ThermoML archive (doi:10.1016/j.jct.2016.09.027):

Test: mn = molality of the nth substance listed, in mol/kg
Conditions: 100 kPa, Liquid; for speed of sound: Frequency=3 MHz, Sing-around technique in a fixed-path interferometer; for mass density: Vibrating tube method

C[C@H]1COc2c(N3CCN(C)CC3)c(F)cc3c(=O)c(C(=O)O)cn1c23 [levofloxacin] + O
Conditions	mass density, 288.15 K [kg/m3]	mass density, 293.15 K [kg/m3]	mass density, 298.15 K [kg/m3]	mass density, 303.15 K [kg/m3]	mass density, 308.15 K [kg/m3]	speed of sound, 288.15 K [m/s]	speed of sound, 293.15 K [m/s]	speed of sound, 298.15 K [m/s]	speed of sound, 303.15 K [m/s]	speed of sound, 308.15 K [m/s]
m1 = 0.005	1001.5	1000.61	999.444	998.037	996.415	1467.4	1483.2	1497.3	1509.7	1520.3
m1 = 0.01	1002.04	1001.14	999.956	998.556	996.926	1468.3	1484	1498.1	1510.4	1521
m1 = 0.03	1004.52	1003.59	1002.39	1000.96	999.305	1471.4	1487.2	1500.9	1513	1523.4
